In patent publication US8138191B2, “Inhibitor compounds and cancer treatment methods” (Critical Outcome Technologies Inc., priority 2007, dated 2012):
Like-named read-outs stand apart in the source and are kept apart here.

Experiments:
[1] = tested on: U87; assay: IC50 human glioma/astrocytoma cell lines (alamar Blue), U87
[2] = tested on: SNB-19; assay: IC50 human glioma/astrocytoma cell lines (alamar Blue), SNB-19
[3] = tested on: SHP77; assay: Resistance testing over 5 generations, SHP77; assay type: cell-based, human; conditions: SHP77, 5 generations
Protocol: (§1) In order to evaluate the induction of resistance in vitro, compounds according to the invention were tested in head to head comparisons against conventional therapeutic agents Cisplatin® and Taxotere®. The compound designated COTI-4 (which is the subject of Applicant's co-pending U.S. provisional patent application entitled “Composition and Method for Treatment” filed Dec. 26, 2007) was also tested. The structure for COTI-4 is:
(§2) IC50 values were obtained using methods known to persons skilled in the art with two different human SCLC cell lines (DMS153 and SHP77) obtained from the National Cancer Institute. […] The procedure was repeated for a total of 5 generations. Emerging resistance was identified by increasing IC50 values in successive generations.

[4] = tested on: SHP-77 human SCLC cell line tumor xenografts; assay: Nude mouse model of human SCLC, SHP-77 xenografts; assay type: in vivo; conditions: for average number of tumors per injection site / mean tumor volume: IP on alternate days from Day 3, 31 days
Protocol: The nude mouse model of human SCLC was used to evaluate the in vivo efficacy of compounds of the present invention in comparison with several known chemotherapeutic agents. Nude mice were obtained form the National Cancer Institute and the SHP-77 human SCLC cell line was chosen for metastatic tumor xenografts. The control group consisted of 10 animals, each of which were administered bilateral thigh injections of a prescribed volume of tumor cells. There were 6 treatment groups, each containing 5 animals: COTI-2, COTI-4, COTI-219, Taxotere® (docetaxel), Cisplatin® (cis-diamminedichloroplatinum) and Tarceva® (erlotinib) The therapeutic agent was administered by intraperitoneal (IP) injection on alternate days beginning on Day 3 post tumor cell injection. Each animal in a treatment group was administered bilateral thigh injections with the same prescribed volume of tumor cells as the control animals. Treatment continued for 31 days, following which the animals were euthanized and tissues were collected for subsequent analysis.

[5] = tested on: DMS153; assay: Resistance testing over 5 generations, DMS153; assay type: cell-based, human; conditions: DMS153, 5 generations
Protocol: as §1, §2

[6] = target: T1, CYP2B6 (Homo sapiens, UniProt P20813); assay: biochemical
T1 sequence (P20813 1-491): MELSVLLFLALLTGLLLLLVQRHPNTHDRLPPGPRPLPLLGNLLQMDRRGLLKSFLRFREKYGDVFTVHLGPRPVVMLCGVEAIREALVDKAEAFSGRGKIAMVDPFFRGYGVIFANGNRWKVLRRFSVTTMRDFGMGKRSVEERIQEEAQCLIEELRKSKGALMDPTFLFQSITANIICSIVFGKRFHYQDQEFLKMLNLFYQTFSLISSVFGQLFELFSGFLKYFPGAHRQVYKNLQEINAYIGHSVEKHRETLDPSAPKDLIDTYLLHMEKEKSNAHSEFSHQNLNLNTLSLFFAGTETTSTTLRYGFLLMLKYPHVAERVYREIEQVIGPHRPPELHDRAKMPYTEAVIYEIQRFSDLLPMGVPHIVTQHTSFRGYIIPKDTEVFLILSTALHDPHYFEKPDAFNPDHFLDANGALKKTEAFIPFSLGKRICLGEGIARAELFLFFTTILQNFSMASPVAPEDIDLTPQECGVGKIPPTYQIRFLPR

[7] = target: T1, CYP2B6; conditions: both, 15 min, pH 7.4
[8] = tested on: DMS114 cells; assay: Proliferation with anti-cancer agents plus COTI-2, DMS114; assay type: cell-based, human; conditions: DMS114
[9] = tested on: SHP 77 cells; assay: Proliferation with anti-cancer agents plus COTI-2, SHP 77; assay type: cell-based, human; conditions: SHP 77
[10] = tested on: PI3K activity in SHP77 cells; assay: PI3-K activity (PIP3 detection, Echelon kit), SHP77; assay type: cell-based, human; conditions: SHP77, 50 μM inhibitor + 250 nM COTI-2
From the text: As a negative control, an equivalent volume of DMSO was utilized. […] To measure PI3-K activity, a commercial kit was purchased from Echelon. Following the procedures recommended by the manufacturer, membrane lipids were extracted in several steps and the resulting PIP3 was immobilized to nitrocellulose and measured by its interaction with a PH-domain containing protein and HRP-conjugated antibody supplied with the kit. As an additional control in these experiments, the specific PI3-K inhibitor, LY294002 was used to inhibit PI3-K and thus stop PIP3 production.

[11] = tested on: NCI/DTP 60 cell line panel; conditions: NOT including DMS114 and SHP-77; cited from earlier work
[12] = tested on: U87 glioblastoma cells; assay: Proliferation of U87 glioblastoma cells (alamarBlue), single agents and combinations with temsirolimus or rapamycin; assay type: cell-based; conditions: Homo sapiens; U87, single agent, triplicate experiments
Protocol: In vitro IC50 values were obtained for combinations of compounds of the present invention with temsirolimus or rapamycin in the treatment of U87 glioblastoma cells. Temsirolimus and rapamycin both inhibit proliferation of human U87 glioblastoma cells, as single agents (FIG. 14). […] Both inhibit proliferation of these cells with increasing concentration.
Temsirolimus was provided in liquid form from the London Regional Cancer Program (LRCP) Pharmacy. COTI-219 was prepared as a 50 mM stock in DMSO, then diluted to 10 mM in DMSO followed by serial dilution water for addition to medium overlaying cells. Cells were incubated with temsirolimus in combination with COTI-219 for 4 days (in wells of 96 well plates) followed by analysis of live cell density using the fluorescent vital stain alamarBlue.
All data points are means±SEM (n=6). Error bars are, in every case, smaller than the size of the symbol.
Rapamycin was prepared by crushing and extracting a tablet (supplied from the LRCP Pharmacy) with DMSO, followed by centrifugation to remove particulate matter. COTI-219 was prepared as a 50 mM stock in DMSO, then diluted to 10 mM in DMSO followed by serial dilution water for addition to medium overlaying cells. […]

[13] = tested on: SW620; assay: Tumor cell proliferation, single agents and combinations, SW620; assay type: cell-based, human; conditions: for IC50: Homo sapiens
Protocol: (§3) The 3 cell lines were treated as follows:
(§4) Day 1: Cells were plated in 96-well flat bottom plates (VWR, Mississauga, ON, Canada) and allowed to adhere overnight.
(§5) All treated and control cells were, therefore, exposed to a 1% DMSO concentration plus the desired concentration of COTI-2.
(§6) The CI, a numerical value calculated as described in equation A, also provides a quantitative measure of the extent of drug interaction. A CI of less than, equal to, and more than 1 indicates synergy, additivity, and antagonism, respectively. CI=(CAx/ICx,A)+(CB,x/ICx,B) Equation A: Where CA,x and CB,x, are the concentrations of drug A and drug B used in combination to achieve x % drug effect. ICx,A and ICx,B are the concentrations for single agents to achieve the same effect.

[14] = tested on: HCT-15; assay: Tumor cell proliferation, single agents and combinations, HCT-15; assay type: cell-based; conditions: Homo sapiens; HCT-15, Colon, KRAS - MUT; read-out: Mean IC50, single agent
Protocol: as §3, §4, §5, §6

[15] = tested on: COLO-205; assay: Tumor cell proliferation, single agents and combinations, COLO-205; assay type: cell-based, human; conditions: for IC50: Homo sapiens
Protocol: as §3, §4, §5, §6

[16] = tested on: H1975; assay: CellTiter-Blue growth inhibition, single agents and combinations, H1975; assay type: cell-based; conditions: Homo sapiens, NCI-H1975; H1975, NSCLC, EGFR - MUT, 72 h; read-out: Mean IC50, single agent
Protocol: (§7) The stock concentration was further diluted to 1 mM and added to a drug plate. […] Following dilution, 2 μl of test agent was transferred to the corresponding wells of a cell-containing 96-well plate with 198 μl of growth media. Tarceva® (erlotinib) was supplied by LC Labs (Woburn, Mass.).
(§8) Viable cell numbers were quantified by the CellTiter-Blue® cell viability assay, which measures the conversion of the indicator dye (resazurin) to resorufin, an indicator of cell viability. Experiments were repeated at least twice with the same concentrations to determine growth inhibitory activity.
as §6

[17] = tested on: H292; assay: CellTiter-Blue growth inhibition, single agents and combinations, H292; assay type: cell-based; conditions: Homo sapiens, NCI-H292; H292, NSCLC, EGFR - WT, 72 h; read-out: Mean IC50, single agent
Protocol: as §7, §8, §6

With `O=NN(CCCl)C(=O)NCCCl` [BCNU, 1,3-Bis(2-chloroethyl)-1-nitrosourea, reference compound] the IC50 ([1]; Homo sapiens, U-87 MG) was 1520 nM and the IC50 ([2]; Homo sapiens, SNB-19) was 2250 nM.

For `N.N.[Cl][Pt][Cl]` [Cisplatin, cis-diamminedichloroplatinum, reference compound], the “emerging resistance: ratio of IC50 to IC50 of parental generation” value (from here on “emerging resistance: ratio of IC50”) [3] was “significant increases in IC50”, the IC50 ([1]; U87, 4-7 days) was 490 nM and the IC50 ([2]; SNB-19, 4-7 days) was 870 nM. For the same molecule, the “average number of tumors per injection site” value [4] was 0.48, the mean tumor volume [4] was 132+/−26 mm^3 and the “emerging resistance: ratio of IC50” value [5] was “significant increases in IC50”.

`COC(=O)[C@H](c1ccccc1Cl)N1CCc2sccc2C1` [Clopidogrel] gave an IC50 [6] of 640 nM and a nH [7] of 2.7.

In the case of `Nc1ccn([C@@H]2O[C@H](CO)[C@@H](O)C2(F)F)c(=O)n1` [Gemcitabine, reference compound], the “effect of combination with COTI-2 on proliferation” value (“effect of combination” for short) [8] is reported as “additive effect” and the “effect of combination” value [9] is reported as “additive effect”.

With `O=c1cc(N2CCOCC2)oc2c(-c3ccccc3)cccc12` [LY294002, reference compound] the “PIP3 detected in the presence of the PI3K-inhibitor” value [10] was “approximately 14 pmol”.

For `COc1ccc(NC(=S)N=Nc2c(O)[nH]c3c(Cl)cc(Cl)cc23)cc1` [NSC73306], the “Mean Over NCI/DTP 60 cell line panel (LogGI50)” value [11] is listed as −4.9.

For `Oc1[nH]c2ccccc2c1N=NC(=S)N1CCCCCC1` [NSC668496], the “Mean Over NCI/DTP 60 cell line panel (LogGI50)” value [11] is listed as −6.1.

For `C=CCNC(=S)N=Nc1c(O)n(CN2CCOCC2)c2ccc([N+](=O)[O-])cc12` [NSC716768], the “Mean Over NCI/DTP 60 cell line panel (LogGI50)” value [11] is given as −4.7.

For `CO[C@H]1C[C@@H]2CC[C@@H](C)[C@@](O)(O2)C(=O)C(=O)N2CCCC[C@H]2C(=O)O[C@H]([C@H](C)C[C@@H]2CC[C@@H](O)[C@H](OC)C2)CC(=O)[C@H](C)/C=C(\C)[C@@H](O)[C@@H](OC)C(=O)[C@H](C)C[C@H](C)/C=C/C=C/C=C/1C` [Rapamycin, rapamycin], the IC50 [12] was 9900 nM.

With `C#Cc1cccc(Nc2ncnc3cc(OCCOC)c(OCCOC)cc23)c1` [Tarceva®, erlotinib] the IC50 ([13]; SW-620, 96 h, read-out: concentration to reduce growth by 50% (IC50), SW620, 4 day assessment) was over 10000 nM, the IC50 ([13]; SW-620, SW620, Colon, KRAS - MUT, read-out: Mean IC50, single agent) was over 10000 nM and the “highest concentration that did not significantly affect growth” value ([13]; SW620) was 5 µM. For the same molecule, the IC50 [14] was 5100 nM, the “highest concentration that did not significantly affect growth” value ([15]; COLO 205) was 10 µM and the IC50 ([15]; 96 h, read-out: concentration to reduce growth by 50% (IC50), COLO-205, 4 day assessment) was over 10000 nM. For the same molecule, the IC50 ([15]; COLO-205, Colon, KRAS - WT, read-out: Mean IC50, single agent) was over 10000 nM, the IC50 [16] was over 100000 nM and the “survival of treated animals to study conclusion” value ([4]; 31 days) was “died before study conclusion”. For the same molecule, the IC50 [17] was 20 nM.

In the case of `CC(=O)O[C@@]12CO[C@@H]1C[C@H](O)[C@@]1(C)C(=O)[C@H](O)C3=C(C)[C@@H](OC(=O)[C@H](O)[C@@H](NC(=O)OC(C)(C)C)c4ccccc4)C[C@@](O)([C@@H](OC(=O)c4ccccc4)[C@H]21)C3(C)C` [Taxotere®, docetaxel, reference compound], the “emerging resistance: ratio of IC50” value [3] is reported as “significant increases in IC50”, the “average number of tumors per injection site” value [4] is reported as 0.48 and the mean tumor volume [4] is reported as 183 mm^3. The “emerging resistance: ratio of IC50” value [5] was “significant increases in IC50”.

For `CO[C@H]1C[C@@H]2CC[C@@H](C)[C@@](O)(O2)C(=O)C(=O)N2CCCC[C@H]2C(=O)O[C@H]([C@H](C)C[C@@H]2CC[C@@H](OC(=O)C(C)(CO)CO)[C@H](OC)C2)CC(=O)[C@H](C)/C=C(\C)[C@@H](O)[C@@H](OC)C(=O)[C@H](C)C[C@H](C)/C=C/C=C/C=C/1C` [Temsirolimus, temsirolimus], the IC50 [12] was 3600 nM.

For `CCC1=C[C@@H]2CN(C1)Cc1c([nH]c3ccccc13)[C@@](C(=O)OC)(c1cc3c(cc1OC)N(C)[C@H]1[C@@](O)(C(=O)OC)[C@H](OC(C)=O)[C@]4(CC)C=CCN5CC[C@]31[C@@H]54)C2` [Vinorelbine, reference compound], the “effect of combination” value [8] was “additive effect” and the “effect of combination” value [9] was “additive effect”.
